Experimental data reported in patent US8092845B2, “Anti-inflammatory extract and agent and method for the production thereof” (Otkrytoe Aktsionernoe Obschestvo Zavod Ekologicheskoy …, priority 2004, dated 2012).

What was measured:
nondescript mice = details: both, mouse, in vivo
Procedure: Diclofenac was used for the comparison of the therapeutic activity of Boswellik. Studies were performed on both male and female nondescript mice after oral administration of the preparations.

peritonitis in rats = test: acute exudative inflammation (peritonitis) caused by intraperitoneal injection of acetic acid, rats; assay type: in vivo; details: 8 mg/kg
Description: (§1) The evaluation of the anti-inflammatory activity for Boswellik has been carried out in a model of the acute inflammatory process—peritonitis—in rats and mice, caused by the intraperitoneal injection of acetic acid.

[1] = system: isolated human blood cells; test: in vitro synthesis of immunoglobulins by isolated human blood cells; assay type: cell-based
peritonitis in mice = test: acute exudative inflammation (peritonitis) caused by intraperitoneal injection of acetic acid, mice; assay type: in vivo; details: 8 mg/kg
Description: as §1

[2] = system: formalin-induced arthritis in rabbits; test: formalin-induced arthritis in rabbits (hematology and joint histology)
Procedure: Experiments were carried out on 51 rabbits “Chinchilla” having a weight of 2800-3200 g. […] An arthritis model was caused by administration of 0.1 ml of a 2% formalin solution into the cavity of the knee joint—and a model of acute arthritis was obtained after twenty-four hours.
The investigated agent and diclofenac were administered according to the following regimen: for preventive purposes 4 days prior to simulation of the arthritis on time per day intragastrically via a probe and on the 4th day 4 hours prior to the administration of formalin.
Animals were euthanized under hexobarbital anesthesia after 3, 7 and 14 days after the induction of arthritis. Prior to beginning of the experiment and prior to euthanasia, blood was taken from the ear vein, and was used to determine hematologic parameters.
For a pathomorphological study, the joints were extracted together with the surrounding tissues and fixed in 10% neutral formalin.

[3] = diclofenac 8 mg/kg, present agent 250 mg/kg
[4] = diclofenac 8 mg/kg, present agent 250 mg/kg, all observation periods

O=C(O)Cc1ccccc1Nc1c(Cl)cccc1Cl [Diclofenac]
safety index (ratio of ulcerogenicity/efficacy) (nondescript mice): 4.3-9.9
influence on the volume of the inflammatory exudate in the abdominal cavity (peritonitis in rats; compared with Boswellik 100 and 130 mg/kg, rats and mice): considerably weaker influence
Degree of the anti-exudative effect A = [Ro − Rk]/Rk100% (peritonitis in rats; rats): 24%
Volume of the peritoneal exudate (peritonitis in rats; rats, n = 10): 3350 ± 220 µL
influence on the synthesis of immunoglobulins [1]: specific immunomodulating influence on the synthesis of immunoglobulins
Degree of the anti-exudative effect A = [Ro − Rk]/Rk100% (peritonitis in mice): 85%
Volume of the peritoneal exudate (peritonitis in mice; n = 10): 37 ± 2 µL
histological study of the joints, first observation ([2]; 3 days after the beginning (time printed for present agent only)): inflammatory and destructive changes were observed
histological study of the joints, 7 days ([2]; 7 days): articulate surfaces had uneven outlines
histological study of the joints, 14 days ([2]; 14 days): surface of articulate cartilages was smoothed down
time until inflammatory process calmed down / destructive changes in articulate cartilages were reduced ([2]; diclofenac 8 mg/kg (most of the animals), present agent 250 mg/kg): 14 days
average content of hemoglobin in the erythrocyte [2, 3]: decreased
number of monocytes [2, 3]: not changed
number of erythrocytes and hemoglobin in the peripheral blood ([2]; diclofenac 8 mg/kg, present agent 250 mg/kg, intragastric, vs initial level): substantially reduced
number of granulocytes [2, 4]: increased
number of leukocytes [2, 4]: insignificantly reduced
level of thrombocytes ([2]; diclofenac 8 mg/kg, present agent 250 mg/kg, entire period of the study): decrease
hematocrit ([2]; diclofenac 8 mg/kg, present agent 250 mg/kg, whole period of observation): reduced
